≈ marks a conversion by molar mass, not a printed value.
What was measured:
Assay type in all cases: functional
Staphylococcus aureus [1] = experiment: Antimicrobial activity against Staphylococcus aureus MTCC96 measured after 24 hrs by well-diffusion method; conditions: MTCC96, 24 h
Bacillus subtilis [2] = experiment: Antimicrobial activity against Bacillus subtilis MTCC121 measured after 24 hrs by well-diffusion method; conditions: MTCC121, 24 h
Staphylococcus aureus [3] = experiment: Antimicrobial activity against Staphylococcus aureus MLS16 MTCC2940 measured after 24 hrs by well-diffusion method; conditions: MLS16 MTCC2940, 24 h
Micrococcus luteus [4] = experiment: Antimicrobial activity against Micrococcus luteus MTCC2470 measured after 24 hrs by well-diffusion method; conditions: MTCC2470, 24 h
Raoultella planticola = experiment: Antimicrobial activity against Klebsiella planticola MTCC530 measured after 24 hrs by well-diffusion method; conditions: MTCC530, 24 h
Escherichia coli = experiment: Antimicrobial activity against Escherichia coli MTCC739 measured after 24 hrs by well-diffusion method; conditions: MTCC739, 24 h
Pseudomonas aeruginosa = experiment: Antimicrobial activity against Pseudomonas aeruginosa MTCCM2453 measured after 24 hrs by well-diffusion method; conditions: MTCCM2453, 24 h
Candida albicans [5] = experiment: Antimicrobial activity against Candida albicans MTCC183 measured after 24 hrs by well-diffusion method; conditions: MTCC183, 24 h
Candida albicans [6] = experiment: Antimicrobial activity against Candida albicans MTCC227 measured after 24 hrs by well-diffusion method; conditions: MTCC227, 24 h
Candida albicans [7] = experiment: Antimicrobial activity against Candida albicans MTCC854 measured after 24 hrs by well-diffusion method; conditions: MTCC854, 24 h
Candida albicans [8] = experiment: Antimicrobial activity against Candida albicans MTCC3958 measured after 24 hrs by well-diffusion method; conditions: MTCC3958, 24 h
Candida albicans [9] = experiment: Antimicrobial activity against Candida albicans MTCC4748 measured after 24 hrs by well-diffusion method; conditions: MTCC4748, 24 h
Candida albicans [10] = experiment: Antimicrobial activity against Candida albicans MTCC1637 measured after 24 hrs by well-diffusion method; conditions: MTCC1637, 24 h
Candida albicans [11] = experiment: Antimicrobial activity against Candida albicans MTCC3017 measured after 24 hrs by well-diffusion method; conditions: MTCC3017, 24 h
Candida albicans [12] = experiment: Antimicrobial activity against Candida albicans MTCC3018 measured after 24 hrs by well-diffusion method; conditions: MTCC3018, 24 h
Candida albicans [13] = experiment: Antimicrobial activity against Candida albicans MTCC7315 measured after 24 hrs by well-diffusion method; conditions: MTCC7315, 24 h
Staphylococcus aureus [14] = experiment: Bactericidal activity against Staphylococcus aureus MTCC96 measured after 24 hrs; conditions: MTCC96, 24 h
Bacillus subtilis [15] = experiment: Bactericidal activity against Bacillus subtilis MTCC121 measured after 24 hrs; conditions: MTCC121, 24 h
Staphylococcus aureus [16] = experiment: Bactericidal activity against Staphylococcus aureus MLS16 MTCC2940 measured after 24 hrs; conditions: MLS16 MTCC2940, 24 h
Micrococcus luteus [17] = experiment: Bactericidal activity against Micrococcus luteus MTCC2470 measured after 24 hrs; conditions: MTCC2470, 24 h
Candida parapsilosis [18] = experiment: Antimicrobial activity against Candida parapsilosis MTCC1744 measured after 24 hrs by well-diffusion method; conditions: Lodderomyces parapsilosis, MTCC1744, 24 h
Nakaseomyces glabratus [19] = experiment: Antimicrobial activity against Candida glabrata MTCC3019 measured after 24 hrs by well-diffusion method; conditions: MTCC3019, 24 h
Pichia kudriavzevii [20] = experiment: Antimicrobial activity against Candida krusei MTCC3020 measured after 24 hrs by well-diffusion method; conditions: MTCC3020, 24 h
Pichia sporocuriosa = experiment: Antimicrobial activity against Issatchenkia hanoiensis MTCC4755 measured after 24 hrs by well-diffusion method; conditions: MTCC4755, 24 h
Micrococcus luteus [21] = experiment: Anti-biofilm activity against Micrococcus luteus MTCC2470 measured after 24 hrs by crystal violet-staining based method; conditions: MTCC2470, 24 h
Staphylococcus aureus [22] = experiment: Anti-biofilm activity against Staphylococcus aureus MTCC96 measured after 24 hrs by crystal violet-staining based method; conditions: MTCC96, 24 h
Bacillus subtilis [23] = experiment: Anti-biofilm activity against Bacillus subtilis MTCC121 measured after 24 hrs by crystal violet-staining based method; conditions: MTCC121, 24 h
Pichia kudriavzevii [24] = experiment: Anti-biofilm activity against Candida krusei MTCC3020 measured after 24 hrs by crystal violet-staining based method; conditions: MTCC3020, 24 h
Staphylococcus aureus [25] = experiment: Anti-biofilm activity against Staphylococcus aureus MLS16 MTCC2940 measured after 24 hrs by crystal violet-staining based method; conditions: MLS16 MTCC2940, 24 h
Candida albicans [26] = experiment: Fungicidal activity against Candida albicans MTCC183 measured after 24 hrs; conditions: MTCC183, 24 h
Candida albicans [27] = experiment: Fungicidal activity against Candida albicans MTCC227 measured after 24 hrs; conditions: MTCC227, 24 h
Candida albicans [28] = experiment: Fungicidal activity against Candida albicans MTCC854 measured after 24 hrs; conditions: MTCC854, 24 h
Candida albicans [29] = experiment: Fungicidal activity against Candida albicans MTCC1637 measured after 24 hrs; conditions: MTCC1637, 24 h
Candida albicans [30] = experiment: Fungicidal activity against Candida albicans MTCC3018 measured after 24 hrs; conditions: MTCC3018, 24 h
Candida albicans [31] = experiment: Fungicidal activity against Candida albicans MTCC3958 measured after 24 hrs; conditions: MTCC3958, 24 h
Candida albicans [32] = experiment: Fungicidal activity against Candida albicans MTCC4748 measured after 24 hrs; conditions: MTCC4748, 24 h
Candida albicans [33] = experiment: Fungicidal activity against Candida albicans MTCC7315 measured after 24 hrs; conditions: MTCC7315, 24 h
Candida parapsilosis [34] = experiment: Fungicidal activity against Candida parapsilosis MTCC1744 measured after 24 hrs; conditions: Lodderomyces parapsilosis, MTCC1744, 24 h
[Candida] aaseri = Fungicidal activity against Candida aaseri MTCC1962 measured after 24 hrs; conditions: Yamadazyma aaseri, MTCC1962, 24 h
Nakaseomyces glabratus [35] = experiment: Fungicidal activity against Candida glabrata MTCC3019 measured after 24 hrs; conditions: MTCC3019, 24 h
Pichia kudriavzevii [36] = experiment: Fungicidal activity against Candida krusei MTCC3020 measured after 24 hrs; conditions: MTCC3020, 24 h

CCCCCCC(C/C=C\CCCCCCCC(=O)OC)NC(=O)[C@@H]1CCCN1 (stereo not given in full)
MIC (Staphylococcus aureus [1]): 15.6 µg/mL (≈ 38.2 µM) | MIC (Bacillus subtilis [2]): 15.6 µg/mL (≈ 38.2 µM) | MIC (Staphylococcus aureus [3]): 31.2 µg/mL (≈ 76.4 µM) | MIC (Micrococcus luteus [4]): 15.6 µg/mL (≈ 38.2 µM) | MIC (Raoultella planticola): > 125 µg/mL | MIC (Escherichia coli): > 125 µg/mL | MIC (Pseudomonas aeruginosa): > 125 µg/mL | MIC (Candida albicans [5]): 31.2 µg/mL (≈ 76.4 µM) | MIC (Candida albicans [6]): 31.2 µg/mL (≈ 76.4 µM) | MIC (Candida albicans [7]): 31.2 µg/mL (≈ 76.4 µM) | MIC (Candida albicans [8]): 31.2 µg/mL (≈ 76.4 µM) | MIC (Candida albicans [9]): 31.2 µg/mL (≈ 76.4 µM) | MIC (Candida albicans [10]): 31.2 µg/mL (≈ 76.4 µM) | MIC (Candida albicans [11]): 31.2 µg/mL (≈ 76.4 µM) | MIC (Candida albicans [12]): 31.2 µg/mL (≈ 76.4 µM) | MIC (Candida albicans [13]): 31.2 µg/mL (≈ 76.4 µM) | MBC (Staphylococcus aureus [14]): 31.2 µg/mL (≈ 76.4 µM) | MBC (Bacillus subtilis [15]): 31.2 µg/mL (≈ 76.4 µM) | MBC (Staphylococcus aureus [16]): 31.2 µg/mL (≈ 76.4 µM) | MBC (Micrococcus luteus [17]): 31.2 µg/mL (≈ 76.4 µM)

CCCCCCC(C/C=C\CCCCCCCC(=O)OC)NC(=O)[C@H](C)N (stereo not given in full)
MIC (Staphylococcus aureus [1]): 7.8 µg/mL (≈ 20.4 µM) | MIC (Bacillus subtilis [2]): 15.6 µg/mL (≈ 40.8 µM) | MIC (Staphylococcus aureus [3]): 15.6 µg/mL (≈ 40.8 µM) | MIC (Micrococcus luteus [4]): 31.2 µg/mL (≈ 81.5 µM) | MIC (Raoultella planticola): > 125 µg/mL | MIC (Escherichia coli): > 125 µg/mL | MIC (Pseudomonas aeruginosa): > 125 µg/mL | MIC (Candida albicans [5]): 15.6 µg/mL (≈ 40.8 µM) | MIC (Candida albicans [6]): 15.6 µg/mL (≈ 40.8 µM) | MIC (Candida albicans [7]): 15.6 µg/mL (≈ 40.8 µM) | MIC (Candida albicans [8]): 7.8 µg/mL (≈ 20.4 µM) | MIC (Candida parapsilosis [18]): 7.8 µg/mL (≈ 20.4 µM) | MIC (Candida albicans [9]): 15.6 µg/mL (≈ 40.8 µM) | MIC (Candida albicans [10]): 15.6 µg/mL (≈ 40.8 µM) | MIC (Candida albicans [11]): 15.6 µg/mL (≈ 40.8 µM) | MIC (Candida albicans [12]): 15.6 µg/mL (≈ 40.8 µM) | MIC (Candida albicans [13]): 15.6 µg/mL (≈ 40.8 µM) | MBC (Staphylococcus aureus [14]): 15.6 µg/mL (≈ 40.8 µM) | MBC (Bacillus subtilis [15]): 15.6 µg/mL (≈ 40.8 µM) | MBC (Staphylococcus aureus [16]): 15.6 µg/mL (≈ 40.8 µM) | MBC (Micrococcus luteus [17]): 15.6 µg/mL (≈ 40.8 µM)

CCCCCCC(C/C=C\CCCCCCCC(=O)OC)NC(=O)CN (stereo not given)
MIC (Staphylococcus aureus [1]): 3.9 µg/mL (≈ 10.6 µM) | MIC (Bacillus subtilis [2]): 7.8 µg/mL (≈ 21.2 µM) | MIC (Staphylococcus aureus [3]): 7.8 µg/mL (≈ 21.2 µM) | MIC (Micrococcus luteus [4]): 3.9 µg/mL (≈ 10.6 µM) | MIC (Raoultella planticola): > 125 µg/mL | MIC (Escherichia coli): > 125 µg/mL | MIC (Pseudomonas aeruginosa): > 125 µg/mL | MIC (Candida albicans [5]): 7.8 µg/mL (≈ 21.2 µM) | MIC (Candida albicans [6]): 7.8 µg/mL (≈ 21.2 µM) | MIC (Candida albicans [7]): 7.8 µg/mL (≈ 21.2 µM) | MIC (Candida albicans [8]): 7.8 µg/mL (≈ 21.2 µM) | MIC (Candida parapsilosis [18]): 7.8 µg/mL (≈ 21.2 µM) | MIC (Nakaseomyces glabratus [19]): 7.8 µg/mL (≈ 21.2 µM) | MIC (Pichia kudriavzevii [20]): 7.8 µg/mL (≈ 21.2 µM) | MIC (Candida albicans [9]): 7.8 µg/mL (≈ 21.2 µM) | MIC (Pichia sporocuriosa): 7.8 µg/mL (≈ 21.2 µM) | MIC (Candida albicans [10]): 7.8 µg/mL (≈ 21.2 µM) | MIC (Candida albicans [11]): 7.8 µg/mL (≈ 21.2 µM) | MIC (Candida albicans [12]): 7.8 µg/mL (≈ 21.2 µM) | MIC (Candida albicans [13]): 7.8 µg/mL (≈ 21.2 µM) | MBC (Staphylococcus aureus [14]): 7.8 µg/mL (≈ 21.2 µM) | MBC (Bacillus subtilis [15]): 7.8 µg/mL (≈ 21.2 µM) | MBC (Staphylococcus aureus [16]): 7.8 µg/mL (≈ 21.2 µM) | MBC (Micrococcus luteus [17]): 7.8 µg/mL (≈ 21.2 µM) | IC50 (Micrococcus luteus [21]): 1.9 µg/mL (≈ 5.16 µM) | IC50 (Staphylococcus aureus [22]): 2.1 µg/mL (≈ 5.7 µM) | IC50 (Bacillus subtilis [23]): 2.9 µg/mL (≈ 7.87 µM) | IC50 (Pichia kudriavzevii [24]): 4.1 µg/mL (≈ 11.1 µM) | IC50 (Staphylococcus aureus [25]): 4.1 µg/mL (≈ 11.1 µM) | MFC (Candida albicans [26]): 7.8 to 31.2 µg/mL (≈ 21.2 to 84.7 µM) | MFC (Candida albicans [27]): 7.8 to 31.2 µg/mL (≈ 21.2 to 84.7 µM) | MFC (Candida albicans [28]): 7.8 to 31.2 µg/mL (≈ 21.2 to 84.7 µM) | MFC (Candida albicans [29]): 7.8 to 31.2 µg/mL (≈ 21.2 to 84.7 µM) | MFC (Candida albicans [30]): 7.8 to 31.2 µg/mL (≈ 21.2 to 84.7 µM) | MFC (Candida albicans [31]): 7.8 to 31.2 µg/mL (≈ 21.2 to 84.7 µM) | MFC (Candida albicans [32]): 7.8 to 31.2 µg/mL (≈ 21.2 to 84.7 µM) | MFC (Candida albicans [33]): 7.8 to 31.2 µg/mL (≈ 21.2 to 84.7 µM) | MFC (Candida parapsilosis [34]): 7.8 to 31.2 µg/mL (≈ 21.2 to 84.7 µM) | MFC ([Candida] aaseri): 7.8 to 31.2 µg/mL (≈ 21.2 to 84.7 µM) | MFC (Nakaseomyces glabratus [35]): 7.8 to 31.2 µg/mL (≈ 21.2 to 84.7 µM) | MFC (Pichia kudriavzevii [36]): 7.8 µg/mL (≈ 21.2 µM)

Clc1ccc(COC(Cn2ccnc2)c2ccc(Cl)cc2Cl)c(Cl)c1 (stereo not given) [MICONAZOLE]
MIC (Candida albicans [5]): 7.8 µg/mL (≈ 18.7 µM) | MIC (Candida albicans [6]): 7.8 µg/mL (≈ 18.7 µM) | MIC (Candida albicans [7]): 7.8 µg/mL (≈ 18.7 µM) | MIC (Candida albicans [8]): 7.8 µg/mL (≈ 18.7 µM) | MIC (Candida parapsilosis [18]): 7.8 µg/mL (≈ 18.7 µM) | MIC (Nakaseomyces glabratus [19]): 7.8 µg/mL (≈ 18.7 µM) | MIC (Pichia kudriavzevii [20]): 7.8 µg/mL (≈ 18.7 µM) | MIC (Candida albicans [9]): 7.8 µg/mL (≈ 18.7 µM) | MIC (Pichia sporocuriosa): 7.8 µg/mL (≈ 18.7 µM) | MIC (Candida albicans [10]): 7.8 µg/mL (≈ 18.7 µM) | MIC (Candida albicans [11]): 7.8 µg/mL (≈ 18.7 µM) | MIC (Candida albicans [12]): 7.8 µg/mL (≈ 18.7 µM) | MIC (Candida albicans [13]): 7.8 µg/mL (≈ 18.7 µM)
